Each structure is given as a SMILES string.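 Cultured in 96-well plates, cells were exposed to test compound for 48 hours across five concentrations. GI50 marks 50% less growth.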 Activity calls are given as the source filed them. Rule as the data show it: active = GI50 up to about 1.1 µM and inactive = higher. Some results are limits rather than exact numbers.

Some test systems named below: LOX IMVI; SK-MEL-5; K562; NCI-H460; CAKI-1; HL-60; MOLT-4; UACC-257; EKVX; UACC-62; SK-OV-3; IGROV-1; KM12; U-251; OVCAR-3; HCT-116; CCRF-CEM; SW-620; SR; OVCAR-4.
Holding throughout (assay): NCI tumour cell line growth inhibition, 48 h

Turning to `CC12CCC(O)CC1CCC1C2CCC2(C)C(C(=O)CC(O)C(F)(F)F)CCC12` (stereo not given), the GI50 is 7 µM (inactive) in the assay on LOX IMVI; 28.4 µM (inactive) in the assay on SK-MEL-5; 3.8 µM (inactive) in the assay with K562; 11.7 µM (inactive) in the assay on NCI-H460; 21 µM (inactive) in the assay with CAKI-1; 9.02 µM (inactive) in the assay with HL-60. The GI50 with MOLT-4 was 9.35 µM (inactive); in the assay on UACC-257, 21.6 µM (inactive); in the assay with EKVX, 40.4 µM (inactive); with UACC-62 it was 52.2 µM (inactive); in the assay with SK-OV-3, 27 µM (inactive); with IGROV-1, > 67.8 µM (inactive). The GI50 in the assay on KM12 is 17.1 µM (inactive); in the assay on U-251, 26.2 µM (inactive); with OVCAR-3 it was 28.6 µM (inactive); in the assay with HCT-116 it was 28.4 µM (inactive); in the assay with CCRF-CEM it was 25.6 µM (inactive); in the assay on SW-620 it was 40.5 µM (inactive). Besides, the GI50 in the assay on SR is 0.289 µM (active); in the assay on OVCAR-4, > 100 µM (inactive).

`CCCCCCNC(=O)C1=C(C)NC(C)=C(C(=O)NCCCCCC)C1`: the GI50 in the assay with LOX IMVI is > 100 µM (inactive); with SK-MEL-5, > 100 µM (inactive); in the assay with K562, 65.8 µM (inactive); with NCI-H460, > 100 µM (inactive); in the assay on CAKI-1, > 100 µM (inactive); in the assay with HL-60 it was 31 µM (inactive). In addition, the GI50 in the assay on MOLT-4, with UACC-257, in the assay with EKVX, in the assay on UACC-62, in the assay with SK-OV-3 and with IGROV-1 was > 100 µM (inactive) in each case. For the same compound, the GI50 with KM12 was > 100 µM (inactive); in the assay with U-251 it was > 100 µM (inactive); with OVCAR-3, > 100 µM (inactive); with HCT-116, > 100 µM (inactive); in the assay with CCRF-CEM it was 70.3 µM (inactive); in the assay on SW-620, > 100 µM (inactive). For the same compound, the GI50 in the assay on SR was 83 µM (inactive); in the assay with OVCAR-4, > 100 µM (inactive).

As to `CCOC(=O)c1nc2ccc(C(F)(F)F)cc2nc1NCc1ccc(Cl)c(Cl)c1`, the GI50 in the assay with LOX IMVI is 30.8 µM (inactive); in the assay on SK-MEL-5 it was 31.9 µM (inactive); with K562, 80 µM (inactive); with NCI-H460 it was 45.6 µM (inactive); in the assay on CAKI-1, 24.9 µM (inactive); in the assay with HL-60, 41.5 µM (inactive). The GI50 in the assay with MOLT-4 was > 100 µM (inactive); in the assay with UACC-257 it was 42.4 µM (inactive); in the assay on EKVX, 22.8 µM (inactive); in the assay on UACC-62, 30 µM (inactive); in the assay with SK-OV-3 it was 35.2 µM (inactive); with IGROV-1, 20.7 µM (inactive). Moreover, the GI50 in the assay on KM12 is 28.7 µM (inactive); in the assay with U-251, 58.6 µM (inactive); in the assay with OVCAR-3, 23.3 µM (inactive); in the assay with HCT-116, 27 µM (inactive); in the assay with CCRF-CEM, > 100 µM (inactive); in the assay on SW-620, 40 µM (inactive). For the same compound, the GI50 is 37.9 µM (inactive) in the assay with SR and 21 µM (inactive) with OVCAR-4.

`CN(CCN(C)CCN(C)C(=O)Cc1ccc(Cl)c(Cl)c1)CCN1CCCC1`: the GI50 is 16.6 µM (inactive) with LOX IMVI; 15.2 µM (inactive) in the assay with SK-MEL-5; 3.24 µM (inactive) in the assay on K562; 26.9 µM (inactive) in the assay on NCI-H460; 35.2 µM (inactive) with CAKI-1; 18.2 µM (inactive) in the assay on HL-60. Moreover, the GI50 with MOLT-4 is 10.6 µM (inactive); in the assay with UACC-257, 5.11 µM (inactive); with EKVX, 45.4 µM (inactive); in the assay with UACC-62, 4.52 µM (inactive); in the assay on SK-OV-3, 46.8 µM (inactive); with IGROV-1, 31.1 µM (inactive). Also, the GI50 is 35 µM (inactive) in the assay with KM12; 19 µM (inactive) with U-251; 63.5 µM (inactive) with OVCAR-3; 25 µM (inactive) in the assay on HCT-116; 11.6 µM (inactive) in the assay on CCRF-CEM; 20.3 µM (inactive) with SW-620. The GI50 is 16.5 µM (inactive) with SR and 77.6 µM (inactive) in the assay on OVCAR-4.

`COC1=C(C(c2cc(OC)c(OC)c(OC)c2)c2cc3c(cc2OC)OCO3)C(=O)OC1` (stereo not given): the GI50 in the assay on LOX IMVI is 10 µM (inactive); in the assay with SK-MEL-5, 22.8 µM (inactive); in the assay with K562, 15 µM (inactive); in the assay with NCI-H460 it was 29.2 µM (inactive); in the assay with CAKI-1 it was > 48.5 µM (inactive); with HL-60, 8.55 µM (inactive). Further, the GI50 is 44.2 µM (inactive) in the assay on MOLT-4; > 34.4 µM (inactive) in the assay with UACC-257; 28.4 µM (inactive) with EKVX; 10.6 µM (inactive) in the assay on UACC-62; 41.2 µM (inactive) in the assay with SK-OV-3; 29.4 µM (inactive) with IGROV-1. Besides, the GI50 is 11.6 µM (inactive) in the assay on KM12; 33.3 µM (inactive) in the assay with U-251; 22.3 µM (inactive) with OVCAR-3; 7.01 µM (inactive) in the assay on HCT-116; 21.4 µM (inactive) in the assay on CCRF-CEM; 27 µM (inactive) with SW-620. Also, the GI50 in the assay on SR was 11.1 µM (inactive); in the assay on OVCAR-4 it was 30.4 µM (inactive).

Take `Fc1cccc(CSc2ncnc3c2ncn3C2CCCS2)c1` (stereo not given): the GI50 is 13.2 µM (inactive) in the assay on LOX IMVI; 10.5 µM (inactive) in the assay with SK-MEL-5; 8.77 µM (inactive) in the assay with K562; 4.79 µM (inactive) with NCI-H460; 37.1 µM (inactive) with CAKI-1; 8.83 µM (inactive) with HL-60. The GI50 with MOLT-4 is 3.77 µM (inactive); with UACC-257, 15.6 µM (inactive); in the assay with EKVX, 18.7 µM (inactive); in the assay on UACC-62 it was 13.1 µM (inactive); with SK-OV-3, 38.5 µM (inactive); in the assay on IGROV-1, 22.4 µM (inactive). Also, the GI50 in the assay on KM12 was 15.4 µM (inactive); with U-251, 10.5 µM (inactive); in the assay with OVCAR-3, 17.4 µM (inactive); in the assay on HCT-116 it was 8.34 µM (inactive); in the assay on CCRF-CEM it was 8.49 µM (inactive); with SW-620, 29.9 µM (inactive). Moreover, the results for the GI50 with SR and in the assay on OVCAR-4 were 3.94 µM (inactive) and 23.4 µM (inactive), respectively.

As to `CC(C)(/N=N/C(C)(C)C(=O)NCCO)C(=O)NCCO`, the GI50 in the assay on LOX IMVI, in the assay on SK-MEL-5, in the assay with K562, in the assay on NCI-H460, in the assay on CAKI-1 and in the assay on HL-60 was > 100 µM (inactive) throughout. In addition, the GI50 in the assay with MOLT-4, with UACC-257, with EKVX, with UACC-62, in the assay with SK-OV-3 and in the assay on IGROV-1 was > 100 µM (inactive) each time. The GI50 in the assay with KM12, in the assay on U-251, with OVCAR-3, in the assay on HCT-116, in the assay on CCRF-CEM and with SW-620 was > 100 µM (inactive) each time. The GI50 with SR and in the assay on OVCAR-4 was > 100 µM (inactive) in each case.

Take `CN(C)C(=S)SCC(N)=O`: the GI50 was > 100 µM (inactive) in the assay on LOX IMVI; 65.2 µM (inactive) in the assay with SK-MEL-5; > 100 µM (inactive) with K562; > 100 µM (inactive) in the assay on NCI-H460; > 100 µM (inactive) in the assay with CAKI-1; > 100 µM (inactive) in the assay with HL-60. Further, the GI50 in the assay with MOLT-4, with UACC-257, with EKVX, in the assay with UACC-62, in the assay on SK-OV-3 and with IGROV-1 was > 100 µM (inactive) each time. The GI50 in the assay with KM12, in the assay on U-251, in the assay with OVCAR-3, in the assay with HCT-116, in the assay with CCRF-CEM and in the assay with SW-620 was > 100 µM (inactive) throughout. Moreover, the GI50 in the assay on SR and in the assay on OVCAR-4 was > 100 µM (inactive) in each case.

For `COc1ccc(NC(=O)C(=O)NO)c(OC)c1`, the GI50 is 14.2 µM (inactive) in the assay on LOX IMVI; 18.5 µM (inactive) in the assay with SK-MEL-5; 19.8 µM (inactive) in the assay with K562; 16 µM (inactive) with NCI-H460; 13.8 µM (inactive) with CAKI-1; 17.1 µM (inactive) in the assay on HL-60. Further, the GI50 with MOLT-4 was 11.9 µM (inactive); with UACC-257 it was 22.2 µM (inactive); in the assay with EKVX it was 14.9 µM (inactive); with UACC-62 it was 14.8 µM (inactive); with SK-OV-3, 19.5 µM (inactive); in the assay on IGROV-1, 15.4 µM (inactive). Besides, the GI50 with KM12 is 19.8 µM (inactive); with U-251, 16.7 µM (inactive); with OVCAR-3, 16.6 µM (inactive); in the assay on HCT-116, 18.5 µM (inactive); with CCRF-CEM it was 23 µM (inactive); in the assay on SW-620 it was 18.7 µM (inactive). Further, the GI50 in the assay with SR is 0.239 µM (active); in the assay with OVCAR-4, 17.7 µM (inactive).

Take `Cc1ncc([N+](=O)[O-])n1CC[N+](C)([O-])CCCCn1ccnc1[N+](=O)[O-]` (stereo not given): the GI50 with LOX IMVI, in the assay on SK-MEL-5, with K562, in the assay with NCI-H460, in the assay on CAKI-1 and in the assay with HL-60 was > 100 µM (inactive) in each case. Also, the GI50 in the assay with MOLT-4, in the assay with UACC-257, in the assay with EKVX, in the assay with UACC-62, with SK-OV-3 and in the assay with IGROV-1 was > 100 µM (inactive) throughout. Also, the GI50 in the assay on KM12, in the assay on U-251, in the assay on OVCAR-3, in the assay with HCT-116, with CCRF-CEM and with SW-620 was > 100 µM (inactive) in each case. The GI50 with SR and in the assay on OVCAR-4 was > 100 µM (inactive) throughout.
